Entries after “also recorded” stand apart in the source; their conditions may differ.
Experiments:
[1] = system: GCLC, GCLm and NQO1 genes; assay: Expression of Nrf2 regulated antioxidant genes in multiple tissues post TBI by quantitative RT-PCR; format: in vivo, mice; conditions: small intestine, colon, lung, liver, kidney, salivary gland and other organs
From the text: FIG. 5 is a table that quantifies Nrf2 regulated antioxidant defenses in multiple tissues of mice treated with CDDO-Me post TBI.

[2] = system: hematopoietic stem cells and progenitors cell; assay: TBI induced hematopoietic injury, bone marrow clonogenic assay; format: in vivo, mice; conditions: bone marrow clonogenic assay after TBI, vs vehicle
Experimental: FIG. 4 is a graph quantitating TBI induced HP injury in mice after CDDO-me or vehicle treatment as assessed by bone marrow clonogenic assay.
To assess the protective effect of CDDO-Me on hematopoietic injury, bone marrow was analyzed in a clonogenic assay.

[3] = system: Nrf2+/+ mice; assay: TBI induced mortality in Nrf2+/+ mice after CDDO-Me treatment; format: in vivo; conditions: for mortality: survival monitored for 30 days, vehicle 100% mortality
Experimental: (§1) FIG. 2 includes three graphs, which provide proof of concept studies with Nrf2 activator, showing quantitation of TBI induced Mortality in Nrf2−/− mice and Nrf2+/+ mice after CDDO-me (small molecule Nrf2 activator) or vehicle treatment. One hour and 24 hours after TBI mice (n=10/gp) mice were treated with CDDO-Me. Survival was monitored for 30 days.
(§2) To determine if pharmacological activation of Nrf2 improves survival following TBI, we treated Nrf2+/+ and Nrf2−/− with the small molecule, CDDO-Me, a potent Nrf2 activator 1 hour and 24 hours after TBI.

[4] = system: mice; assay: TBI induced gastrointestinal (GI) injury: villi morphology and crypt cell proliferation (BrdU); format: in vivo; conditions: treatment post 1 h TBI, day 9 post TBI, vs vehicle; for mucosal injury (length of villi): histopathology
Experimental: FIGS. 3A-3D show TBI induced GI injury in Nrf2+/+ and Nrf2−/− mice after CDDO-me or vehicle treatment. One hour after TBI […] mice (n=10/gp) mice were treated with CDDO-Me. GI injury was assessed by mucosal damage by histopathalogical analysis (FIGS. 3A and 3B) and crypt cell proliferation by BrdU immunohistochemistry staining (FIGS. 3C and 3D).
To analyze the GI injury, villi morphology and proliferation of crypt cells were quantified by immunohistochemistry and BrdU labeling on day 9 post TBI.

[5] = system: Nrf2−/− mice; assay: TBI induced mortality in Nrf2-/- mice after CDDO-Me treatment; format: in vivo; conditions: treated 1 hour post-TBI
Experimental: as §1, §2

COC(=O)[C@]12CCC(C)(C)C[C@H]1[C@H]1C(=O)C=C3[C@@]4(C)C=C(C#N)C(=O)C(C)(C)[C@@H]4CC[C@@]3(C)[C@]1(C)CC2 [CDDO-Me]
expression of antioxidant genes (GCLC, GCLm, NQO1) [1]: markedly upregulated antioxidant genes | protection of hematopoietic stem cells and progenitors (granulocyte/macrophage colony forming cells) [2]: markedly protected hematopoietic stem cells and progenitors cell | TBI induced mortality ([3]; treated 1 hour and 24 hours after TBI, vs vehicle): markedly inhibited TBI induced mortality | mortality ([3]; treated 1 hour post-TBI): 0% | mortality ([3]; treated 24 hours post-TBI): 25% | crypt cell proliferation (BrdU staining) ([4]; BrdU immunohistochemistry): significantly mitigated loss of crypt cells; also recorded: marked improvement in crypt cell proliferation | mucosal injury (length of villi) [4]: significantly mitigated reduction in gastrointestinal villi | mucosal injury (length of villi) ([4]; listed as CDDO-me): markedly ameliorated mucosal injury | survival following TBI [5]: failed to improve survival

— US20120029071A1, “COMPOSITIONS AND METHODS FOR TREATING OR PREVENTING RADIATION INJURY” (THE JOHNS HOPKINS UNIVERSITY, priority 2008, published 2012)
